# Data reported in patent US10703733B2, “MCL-1 inhibitors” (Gilead Sciences, Inc., priority 2018, dated 2020).
# Read-outs that look alike come from different tables or passages of the source.
# Tests used:
# [1] = biological target: MCL-1/Bim interaction (recombinant human MCL-1 protein, residues 171-327; biotinylated human Bim peptide, residues 51-76) (Homo sapiens (Human), UniProt Q07820); experiment: MCL-1/Bim Binding AlphaLISA Assay; conditions: 0.0625 nM 6xHis-Mcl-1 (171-327), 0.0625 nM biotinylated-Bim peptide
# Sequence of MCL-1/Bim interaction (recombinant human MCL-1 protein, residues 171-327; biotinylated human Bim peptide, residues 51-76) (Q07820 171-327): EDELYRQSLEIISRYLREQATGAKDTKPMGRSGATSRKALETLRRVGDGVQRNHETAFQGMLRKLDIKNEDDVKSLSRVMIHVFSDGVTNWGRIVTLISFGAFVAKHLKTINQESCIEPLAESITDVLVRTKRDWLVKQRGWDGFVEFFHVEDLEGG
# Description: MCL-1/Bim Binding AlphaLISA Assay.
# Inhibition of the MCL-1 and Bim interaction was measured in the following AlphaLISA assay.
# Recombinant human MCL-1 protein (C-terminal 6×His Tagged Mcl-1 containing residues 171-327) was generated at Gilead Sciences, Inc. (Foster City, Calif.). A biotinylated peptide derived from human Bim (residues 51-76) was purchased from CPC Scientific (Sunnyvale, Calif.). (CPC 834113). AlphaLISA anti-6His-acceptor beads (AL128R), AlphaScreen Streptavidin donor beads (6760002B), and Proxiplate-384 Plus (6008289) were purchased from PerkinElmer.
# The AlphaLISA assay was performed in a 384-well Proxiplate in a total volume of […]. The reaction mixture contained 0.0625 nM 6×His-Mcl-1 (171-327), 0.0625 nM biotinylated-Bim peptide, 10 μg/mL AlphaLISA anti-6×His-AlphaLISA acceptor beads, […] AlphaScreen streptavidin donor beads, and serially diluted test compounds in the binding buffer (20 mM Hepes, pH 7.5 (Teknova H1035); 150 mM NaCl (Promega V4221); 0.002% Brij 35 (Thermo Scientific 20150); 1 mM Dithiothreitol (DTT) Solution (Affymetrix 70726); 0.01% BSA (BioLabs B9000S)). 1,000×test compounds were pre-spotted onto 384-well Proxiplate (Labcyte Echo) by Echo 555 Liquid Handler (Labcyte Inc., San Jose, Calif.) followed by incubation of 5 μl Mcl-1(171-327) for 1 hour. Then 5 μL Bim (51-76) was added and incubated for 2 hours. Five μL AlphaLISA anti-6His-AlphaLISA acceptor beads were then added for 1 hour followed by addition of 5 μL AlphaScreen streptavidin donor beads for 1 hour. The reaction plates were then read on an Envision multimode reader (PerkinElmer) using AlphaScreen settings. […] Percent inhibition was calculated as shown below: % Inhibition=100%*(Well−Neg)/(Pos−Neg) Neg: negative control, DMSO Pos: positive control, no Mcl-1 protein, no biotinylated-Bim peptide
# SKBR3 cells = experiment: SKBR3 Cell Viability Assay (CellTiter Glo); format: cell-based; conditions: CellTiter Glo luminescence, read-out: MCL-1 CV SKBR3 EC50
# Description: SKBR3 Cell Viability Assay Materials
# SKBR3 Cells (ATCC HTB-30) were obtained from ATCC (Manassas, Va.) and cultured in McCoy 5A's medium (ATCC 30-2007)+10% fetal bovine serum (SH30071.03, HyClone, Pittsburgh, Pa.) plus 1× Penicillin-Streptomycin L-glutamine (Corning 30-009-C1, Corning, N.Y.)).
# The cell viability assay was conducted in a 384-well tissue culture plate (Grenier 781086, Monroe, N.C.) in a total volume of 70 μL. Test compounds were prepared in 1,000×, serially diluted, and pre-spotted into 384-well tissue culture plate by Echo 555 Liquid Handler (Labcyte Inc., San Jose, Calif.). Seventy μl of 6,000 SKBR3 cells were dispensed into each well of the plate and incubated at 37° C. with 5% CO2 for 72 hours. At the end of incubation, 2× CellTiter Glo (CTG) reagents (1 part buffer with 2 parts substrate) (Promega, Madison, Wis.) were prepared, and the plate and the reagent were equilibrated to room temperature for 30 minutes. CTG reagent was added to each plate by Biomek FX at 20 μL/well with 5 times pipetting and mixing to induce cell lysis. Luminescence was read by Envision multimode reader (PerkinElmer). […] Percent inhibition was calculated as followed: % Inhibition=100%*(Well−Neg)/(Pos−Neg) Neg, negative control, DMSO Pos, positive control, 10 μM Puromycin
Structure (SMILES),IC50 [1] [nM],"EC50 (SKBR3 cells; Homo sapiens, SK-BR-3, 72 h) [nM]",EC50 (SKBR3 cells; 72 hours) [nM]
CO[C@H]1/C=C/C[C@H](C)C[S@@](=O)(NC(=O)NC2C[C@H]2C(F)F)=NC(=O)c2ccc3c(c2)N(C[C@@H]2CC[C@H]21)C[C@@]1(CCCc2cc(Cl)ccc21)CO3 (stereo partly shown) [Example 207],0.162,44,–
CO[C@H]1/C=C/CCC[S@@](=O)(NC(=O)CCc2ncsc2C)=NC(=O)c2ccc3c(c2)N(C[C@@H]2CC[C@H]21)C[C@@]1(CCCc2cc(Cl)ccc21)CO3 [Example 101],1.4,2590,–
CO[C@H]1/C=C/CCC[S@@](=O)(NC(=O)N2CCS(=O)(=O)CC2)=NC(=O)c2ccc3c(c2)N(C[C@@H]2CC[C@H]21)C[C@@]1(CCCc2cc(Cl)ccc21)CO3 [Example 73],0.3,2450,–
CO[C@H]1/C=C/CCC[S@@](=O)(NC(=O)NC2(C(F)(F)F)CC2)=NC(=O)c2ccc3c(c2)N(C[C@@H]2CC[C@H]21)C[C@@]1(CCCc2cc(Cl)ccc21)CO3 [Example 32],1.4,1480,–
COc1nn(C)cc1C(=O)N[S@@]1(=O)=NC(=O)c2ccc3c(c2)N(C[C@@H]2CC[C@H]2[C@@H](OC)/C=C/CCC1)C[C@@]1(CCCc2cc(Cl)ccc21)CO3 [Example 389],0.075,304,–
COc1nn(C)cc1C(=O)N[S@@]1(=O)=NC(=O)c2ccc3c(c2)N(C[C@@H]2CC[C@H]2[C@@H](O)CCC[C@H](C)[C@H]1C)C[C@@]1(CCCc2cc(Cl)ccc21)CO3 [Example 290],0.03,26.4,–
COc1nc(N2CCOCC2)ncc1C(=O)N[S@@]1(=O)=NC(=O)c2ccc3c(c2)N(C[C@@H]2CC[C@H]2[C@@H](OC)/C=C/C[C@H](C)C1)C[C@@]1(CCCc2cc(Cl)ccc21)CO3 [Example 462],0.251,345,–
COc1cn(C)cc1C(=O)N[S@@]1(=O)=NC(=O)c2ccc3c(c2)N(C[C@@H]2CC[C@H]2[C@@H](O)/C=C/C[C@H](C)[C@H]1C)C[C@@]1(CCCc2cc(Cl)ccc21)CO3 [Example 359],0.038,–,19
CO[C@H]1/C=C/CCC[S@@](=O)(NC(=O)COc2ccnn2C)=NC(=O)c2ccc3c(c2)N(C[C@@H]2CC[C@H]21)C[C@@]1(CCCc2cc(Cl)ccc21)CO3 [Example 100],0.2,2260,–
CO[C@H]1/C=C/CCC[S@@](=O)(NC(=O)CCS(C)(=O)=O)=NC(=O)c2ccc3c(c2)N(C[C@@H]2CC[C@H]21)C[C@@]1(CCCc2cc(Cl)ccc21)CO3 [Example 28],0.2,8410,–
CO[C@H]1/C=C/CCC[S@@](=O)(NC(=O)C2COC2)=NC(=O)c2ccc3c(c2)N(C[C@@H]2CC[C@H]21)C[C@@]1(CCCc2cc(Cl)ccc21)CO3 [Example 24],0.2,891,–
CO[C@H]1/C=C/C[C@H](C)C[S@@](=O)(NC(=O)NC2CC3(COC3)C2)=NC(=O)c2ccc3c(c2)N(C[C@@H]2CC[C@H]21)C[C@@]1(CCCc2cc(Cl)ccc21)CO3 [Example 217],0.065,83.2,–
COC[C@@H]1CC[C@H]1NC(=O)N[S@@]1(=O)=NC(=O)c2ccc3c(c2)N(C[C@@H]2CC[C@H]2[C@@H](OC)/C=C/C[C@H](C)C1)C[C@@]1(CCCc2cc(Cl)ccc21)CO3 [Example 307],0.12,96.8,–

# Now from value to molecule:
IC50 [1] [nM],"EC50 (SKBR3 cells; Homo sapiens, SK-BR-3, 72 h) [nM]",EC50 (SKBR3 cells; 72 hours) [nM],Structure (SMILES)
0.04,146,–,"CO[C@H]1/C=C/C[C@H](C)C[S@@](=O)(NC(=O)N[C@H]2C[C@H]2CO)=NC(=O)c2ccc3c(c2)N(C[C@@H]2CC[C@H]21)C[C@@]1(CCCc2cc(Cl)ccc21)CO3 (single isomer, unassigned) [Example 365]"
0.263,98.7,–,CO[C@H]1/C=C/C[C@H](C)C[S@@](=O)(NC(=O)c2cc3ccncn3c2)=NC(=O)c2ccc3c(c2)N(C[C@@H]2CC[C@H]21)C[C@@]1(CCCc2cc(Cl)ccc21)CO3 [Example 163]
0.051,111,–,CO[C@H]1/C=C/C[C@H](C)C[S@@](=O)(NC(=O)c2ccn(C)c2)=NC(=O)c2ccc3c(c2)N(C[C@@H]2CC[C@H]21)C[C@@]1(CCCc2cc(Cl)ccc21)CO3 [Example 147]
0.08,141,–,CO[C@H]1/C=C/C[C@H](C)C[S@@](=O)(NC(=O)N[C@@H]2C[C@@H]2F)=NC(=O)c2ccc3c(c2)N(C[C@@H]2CC[C@H]21)C[C@@]1(CCCc2cc(Cl)ccc21)CO3 [Example 116]
0.092,134,–,CO[C@H]1/C=C/C[C@H](C)C[S@@](=O)(NC(=O)c2cc3n(c2)CCN(C(C)=O)C3)=NC(=O)c2ccc3c(c2)N(C[C@@H]2CC[C@H]21)C[C@@]1(CCCc2cc(Cl)ccc21)CO3 [Example 180]
0.057,43.6,–,COC[C@@H]1Cn2cc(C(=O)N[S@@]3(=O)=NC(=O)c4ccc5c(c4)N(C[C@@H]4CC[C@H]4[C@@H](OC)/C=C/C[C@H](C)C3)C[C@@]3(CCCc4cc(Cl)ccc43)CO5)cc2CO1 [Example 306]
0.223,374,–,CO[C@H]1/C=C/C[C@H](C)C[S@@](=O)(NC(=O)Nc2ccccn2)=NC(=O)c2ccc3c(c2)N(C[C@@H]2CC[C@H]21)C[C@@]1(CCCc2cc(Cl)ccc21)CO3 [Example 441]
0.07,172,–,CO[C@H]1/C=C/C[C@H](C)C[S@@](=O)(NC(=O)c2ccc3ncnn3c2)=NC(=O)c2ccc3c(c2)N(C[C@@H]2CC[C@H]21)C[C@@]1(CCCc2cc(Cl)ccc21)CO3 [Example 432]
0.14,33.9,–,COC1CCn2cc(C(=O)N[S@@]3(=O)=NC(=O)c4ccc5c(c4)N(C[C@@H]4CC[C@H]4[C@@H](OC)/C=C/C[C@H](C)C3)C[C@@]3(CCCc4cc(Cl)ccc43)CO5)cc2C1 (stereo partly shown) [Example 175]
0.091,210,–,CO[C@H]1/C=C/C[C@H](C)C[S@@](=O)(NC(=O)COC2CC2)=NC(=O)c2ccc3c(c2)N(C[C@@H]2CC[C@H]21)C[C@@]1(CCCc2cc(Cl)ccc21)CO3 [Example 445]
0.025,168,–,CO[C@H]1/C=C/C[C@H](C)C[S@@](=O)(NC(=O)N[C@H]2CC2(F)F)=NC(=O)c2ccc3c(c2)N(C[C@@H]2CC[C@H]21)C[C@@]1(CCCc2cc(Cl)ccc21)CO3 [Example 161]
0.234,167,–,CO[C@H]1/C=C/C[C@H](C)C[S@@](=O)(NC(=O)c2cn(C)c3nccnc23)=NC(=O)c2ccc3c(c2)N(C[C@@H]2CC[C@H]21)C[C@@]1(CCCc2cc(Cl)ccc21)CO3 [Example 450]
0.09,124,–,COCCCn1cc(C(=O)N[S@@]2(=O)=NC(=O)c3ccc4c(c3)N(C[C@@H]3CC[C@H]3[C@@H](OC)/C=C/C[C@H](C)C2)C[C@@]2(CCCc3cc(Cl)ccc32)CO4)cc1COC [Example 338]
0.035,58.8,–,CO[C@H]1/C=C/C[C@H](C)C[S@@](=O)(NC(=O)N2CC(C(F)F)C2)=NC(=O)c2ccc3c(c2)N(C[C@@H]2CC[C@H]21)C[C@@]1(CCCc2cc(Cl)ccc21)CO3 [Example 351]
0.077,64.7,–,CO[C@H]1/C=C/C[C@H](C)C[S@@](=O)(NC(=O)N[C@@H]2C[C@H]2c2cnn(C)c2)=NC(=O)c2ccc3c(c2)N(C[C@@H]2CC[C@H]21)C[C@@]1(CCCc2cc(Cl)ccc21)CO3 [Example 129]
0.031,30.9,–,COCC1CN(C(=O)N[S@@]2(=O)=NC(=O)c3ccc4c(c3)N(C[C@@H]3CC[C@H]3[C@@H](OC)/C=C/C[C@H](C)C2)C[C@@]2(CCCc3cc(Cl)ccc32)CO4)C1 [Example 346]
